Measured values taken from patent US11059824B2, “Substituted purines as TLR7 agonists” (Primmune Therapeutics, Inc., priority 2018, dated 2021).
pEC50: −log10 of the molar value. “And” between values parts separate entries of the source, which are not always exact repeats. Identical values can stand only once. Counter-ions that a name gives are not always drawn. Marks after values point to notes of the source that are not given here.

Key:
[1] = target: human TLR7 (Homo sapiens (Human), UniProt Q9NYK1); experiment: TLR7 reporter assay (HEK293-TLR-NF-κB inducible SEAP reporter); type: cell-based; conditions: HEK293 cells stably expressing human TLR7 with NF-κB-driven SEAP reporter; 15-24 hours
Excerpt: The engagement of TLRs by cognate ligands triggers downstream signaling cascades, leading to the activation of NF-κB and other transcription factors which initiate various immunomodulatory effects. The human embryonic kidney cell line, HEK293, is essentially non-responsive to TLR agonists, but ectopic expression of TLRs in these cells allows cognate agonists to activate endogenous NF-κB. Accordingly, the HEK293-TLR-NF-κB inducible reporter system is used to assay TLR agonists. HEK293 cell lines stably expressing human TLR7 or TLR8 together with an NF-κB-driven-secreted alkaline phosphatase (SEAP) reporter were invented at InvivoGen (San Diego, Calif., USA) and used to assess compounds of the present invention for TLR7 and TLR8 agonist activities. Cells were seeded at 2-5×10^4 cells/well in 96 well plates ([…]) and treated with various concentrations of compound (10 μl) for 15-24 hours. SEAP activity was determined by measuring OD at 650 nm; the media used to culture the cell lines contains the reagents required for SEAP detection. The EC50 values in Table 2 are calculated from fitting the dose response of measured SEAP activity for each compound to the following equation: Y=ymax*c^nh/(EC50^nh+c^nh)+blank where Y is the experimentally measured OD650 at concentration c of test article, blank is the observed OD650 in the absence of TLR7 agonist, ymax is the difference between the measured OD650 in the presence of either 28.5 μM resiquimod or 1.675 μM CL307 and the blank and values of EC50 and nh are determined by nonlinear least squares analysis.

[2] = tested on: interferon-α production in hPBMCs; experiment: Induction of interferon-α production in hPBMCs; type: cell-based, human; conditions: interferon-α production from hPBMCs; for Weighted MEC: geometric mean of all individual MECs across all donors, 24 hours; for individual MEC values: per donor
Method: Treatment of hPBMCs with a TLR7 agonist typically induces substantial production of interferon-α as well as lesser amounts of a variety of other cytokines and chemokines. A typical experiment uses hPBMCs isolated from a healthy donor and placed in replicate cell culture wells; typically 1.0-7.5×10^6 cells are placed in each well. Test compound is added and the cells cultured for 24 hours at 37° C. in a humidified atmosphere containing 5% CO2 post-addition; untreated controls are included. Secreted interferon-α production is measured using an a multisubtype interferon-α ELISA kit like those from PBL Assay Sciences or specifically as IFNα2a as part of a panel of cytokines and chemokines using luminex methodologies. The minimal effective concentration (MEC) is the minimum concentration in a dose response curve where a significant increase in interferon-α production (generally at least 20 pg/ml) is observed above baseline. MEC values for each compound are determined for at least three donors. The weighted MEC for each compound is the geometric mean of all individual MECs across all donors. Concentrations tested typically consist of a two-fold dilution series starting at 100 μM. In the calculation of weighted MEC, any value >100 μM is arbitrarily set to 200 μM unless all MECs for a compound exceed 100 μM

Chain of human TLR7 (Q9NYK1 27-1049): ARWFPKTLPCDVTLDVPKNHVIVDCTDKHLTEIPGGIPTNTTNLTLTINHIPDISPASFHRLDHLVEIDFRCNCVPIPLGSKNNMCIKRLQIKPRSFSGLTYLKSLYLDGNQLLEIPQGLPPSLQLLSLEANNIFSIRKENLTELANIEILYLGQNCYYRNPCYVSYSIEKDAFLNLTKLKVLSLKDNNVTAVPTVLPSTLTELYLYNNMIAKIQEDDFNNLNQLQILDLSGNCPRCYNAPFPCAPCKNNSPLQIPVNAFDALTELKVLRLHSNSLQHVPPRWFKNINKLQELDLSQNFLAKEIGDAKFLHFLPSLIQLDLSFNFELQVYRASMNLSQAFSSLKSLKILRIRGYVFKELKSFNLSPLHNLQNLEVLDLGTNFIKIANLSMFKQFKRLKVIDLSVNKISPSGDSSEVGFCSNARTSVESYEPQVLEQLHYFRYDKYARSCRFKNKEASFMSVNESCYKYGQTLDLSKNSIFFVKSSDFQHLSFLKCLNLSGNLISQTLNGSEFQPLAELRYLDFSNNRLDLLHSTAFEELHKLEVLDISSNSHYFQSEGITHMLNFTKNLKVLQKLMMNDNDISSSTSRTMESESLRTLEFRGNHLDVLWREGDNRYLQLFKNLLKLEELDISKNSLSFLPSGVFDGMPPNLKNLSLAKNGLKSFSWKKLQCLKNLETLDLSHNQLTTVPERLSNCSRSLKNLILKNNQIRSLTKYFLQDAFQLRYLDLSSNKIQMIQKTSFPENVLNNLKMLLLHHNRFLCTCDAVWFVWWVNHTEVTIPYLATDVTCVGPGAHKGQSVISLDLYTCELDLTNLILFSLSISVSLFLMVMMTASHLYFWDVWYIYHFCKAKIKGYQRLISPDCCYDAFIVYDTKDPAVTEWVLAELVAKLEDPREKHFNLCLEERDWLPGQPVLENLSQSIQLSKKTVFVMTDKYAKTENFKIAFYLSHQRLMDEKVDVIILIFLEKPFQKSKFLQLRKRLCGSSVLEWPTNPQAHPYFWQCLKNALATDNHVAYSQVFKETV

Row | Compound | pEC50 [1] | Weighted MEC [2] | individual MEC values [2] [µM]
1 | Nc1nc2c(c(=O)[nH]1)n(CC#CCO)c(=O)n2[C@@H]1O[C@H](CO)[C@H](O)[C@H]1O [Compound 11, 2-Amino-9-((2R,3R,4R,5R)-3,4-dihydroxy-5-(hydroxymethyl)tetrahydrofuran-2-yl)-7-(4-hydroxybut-2-yn-1-yl)-7,9-dihydro-1H-purine-6,8-dione] | 3.60 | 79 µM | –
2 | C=CCn1c(=O)n([C@@H]2O[C@H](CO)C[C@H]2O)c2nc(N)[nH]c(=O)c21 [Compound 36, 7-Allyl-2-amino-9-((2R,3R,5S)-3-hydroxy-5-(hydroxymethyl)tetrahydrofuran-2-yl)-7,9-dihydro-1H-purine-6,8-dione] | 2.92 | 100 µM | –
3 | CCn1c(=O)n([C@@H]2O[C@H](CO)[C@H](O)[C@H]2O)c2nc(N)[nH]c(=O)c21 [Compound 16, 2-Amino-9-((2R,3R,4R,5R)-3,4-dihydroxy-5-(hydroxymethyl)tetrahydrofuran-2-yl)-7-ethyl-7,9-dihydro-1H-purine-6,8-dione] | 3.27 | >100* μM | –
4 | COC(=O)Cn1c(=O)n([C@@H]2O[C@H](CO)[C@H](O)[C@H]2O)c2nc(N)[nH]c(=O)c21 [Compound 12, Methyl 2-(2-amino-9-((2R,3R,4R,5R)-3,4-dihydroxy-5-(hydroxymethyl)tetrahydrofuran-2-yl)-6,8-dioxo-1,6,8,9-tetrahydro-7H-purin-7-yl)acetate] | 3.39 | >100* μM | –
5 | Nc1nc2c(c(=O)[nH]1)n(CC(F)(F)F)c(=O)n2[C@@H]1O[C@H](CO)[C@H](O)[C@H]1O [Compound 13, 2-Amino-9-((2R,3R,4R,5R)-3,4-dihydroxy-5-(hydroxymethyl)tetrahydrofuran-2-yl)-7-(2,2,2-trifluoroethyl)-7,9-dihydro-1H-purine-6,8-dione] | 3.82 | 66* μM | –
6 | Nc1nc2c(c(=O)[nH]1)n(Cc1ccccc1)c(=O)n2[C@@H]1O[C@H](CO)C[C@H]1O [Compound 33, 2-Amino-7-benzyl-9-((2R,3R,5S)-3-hydroxy-5-(hydroxymethyl)tetrahydrofuran-2-yl)-7,9-dihydro-1H-purine-6,8-dione] | 3.16 | 79* μM | –
7 | Nc1nc2c(c(=O)[nH]1)n(Cc1cccc(F)c1)c(=O)n2[C@@H]1O[C@H](CO)C[C@H]1O [Compound 34, 2-Amino-7-(3-fluorobenzyl)-9-((2R,3R,5S)-3-hydroxy-5-(hydroxymethyl)tetrahydrofuran-2-yl)-7,9-dihydro-1H-purine-6,8-dione] | 3.29 | less than or equal to 40 μM and 40 μM | < 100
8 | Nc1nc2c(c(=O)[nH]1)n(C/C=C/CO)c(=O)n2[C@@H]1O[C@H](CO)[C@H](O)[C@H]1O [Compound 8, 2-Amino-9-((2R,3R,4R,5R)-3,4-dihydroxy-5-(hydroxymethyl)tetrahydrofuran-2-yl)-7-((E)-4-hydroxybut-2-en-1-yl)-7,9-dihydro-1H-purine-6,8-dione] | 3.38 | >100* μM | –
9 | COC(=O)CCCn1c(=O)n([C@@H]2O[C@H](CO)[C@H](O)[C@H]2O)c2nc(N)[nH]c(=O)c21 [Compound 21, Methyl 4-(2-amino-9-((2R,3R,4R,5R)-3,4-dihydroxy-5-(hydroxymethyl)tetrahydrofuran-2-yl)-6,8-dioxo-1,6,8,9-tetrahydro-7H-purin-7-yl)butanoate] | 3.28 | >100* μM | –
10 | C=CCn1c(=O)n([C@@H]2O[C@H](CO)[C@H](O)[C@H]2O)c2nc(N)[nH]c(=O)c21 [Compound 2, 7-Allyl-2-amino-9-((2R,3R,4R,5R)-3,4-dihydroxy-5-(hydroxymethyl)tetrahydrofuran-2-yl)-7,9-dihydro-1H-purine-6,8-dione] | 3.53 | 79 µM | –
11 | Nc1nc2c(c(=O)[nH]1)n(CC(F)F)c(=O)n2[C@@H]1O[C@H](CO)[C@H](O)[C@H]1O [Compound 14, 2-Amino-7-(2,2-difluoroethyl)-9-((2R,3R,4R,5R)-3,4-dihydroxy-5-(hydroxymethyl)tetrahydrofuran-2-yl)-7,9-dihydro-1H-purine-6,8-dione] | 3.74 | 100* μM | –
12 | NCCn1c(=O)n([C@@H]2O[C@H](CO)[C@H](O)[C@H]2O)c2nc(N)[nH]c(=O)c21 [Compound 23, 2-Amino-7-(2-aminoethyl)-9-((2R,3R,4R,5R)-3,4-dihydroxy-5-(hydroxymethyl)tetrahydrofuran-2-yl)-7,9-dihydro-1H-purine-6,8-dione hydrochloride] | < 3.30 | – | –
13 | COC(=O)/C=C/Cn1c(=O)n([C@@H]2O[C@H](CO)[C@H](O)[C@H]2O)c2nc(N)[nH]c(=O)c21 [Compound 10, Methyl (E)-4-(2-amino-9-((2R,3R,4R,5R)-3,4-dihydroxy-5-(hydroxymethyl)tetrahydrofuran-2-yl)-6,8-dioxo-1,6,8,9-tetrahydro-7H-purin-7-yl)but-2-enoate] | 3.61 | >100* μM | –
14 | Nc1nc2c(c(=O)[nH]1)n(C/C=C/C(=O)O)c(=O)n2[C@@H]1O[C@H](CO)[C@H](O)[C@H]1O [Compound 9, (E)-4-(2-Amino-9-((2R,3R,4R,5R)-3,4-dihydroxy-5-(hydroxymethyl)tetrahydrofuran-2-yl)-6,8-dioxo-1,6,8,9-tetrahydro-7H-purin-7-yl)but-2-enoic Acid] | 4.82 | >100* μM | –
15 | CCCn1c(=O)n([C@@H]2O[C@H](CO)[C@H](O)[C@H]2O)c2nc(N)[nH]c(=O)c21 [Compound 17, 2-Amino-9-((2R,3R,4R,5R)-3,4-dihydroxy-5-(hydroxymethyl)tetrahydrofuran-2-yl)-7-propyl-7,9-dihydro-1H-purine-6,8-dione] | 3.47 | 100* μM | –
16 | COCCn1c(=O)n([C@@H]2O[C@H](CO)[C@H](O)[C@H]2O)c2nc(N)[nH]c(=O)c21 [Compound 22, 2-Amino-9-((2R,3R,4R,5R)-3,4-dihydroxy-5-(hydroxymethyl)tetrahydrofuran-2-yl)-7-(2-methoxyethyl)-7,9-dihydro-1H-purine-6,8-dione] | 3.25 | >100* μM | –
17 | Nc1nc2c(c(=O)[nH]1)n(CCCCO)c(=O)n2[C@@H]1O[C@H](CO)[C@H](O)[C@H]1O [Compound 19, 2-Amino-9-((2R,3R,4R,5R)-3,4-dihydroxy-5-(hydroxymethyl)tetrahydrofuran-2-yl)-7-(4-hydroxybutyl)-7,9-dihydro-1H-purine-6,8-dione] | 3.31 | >100* μM | –
18 | C/C=C/Cn1c(=O)n([C@@H]2O[C@H](CO)[C@H](O)[C@H]2O)c2nc(N)[nH]c(=O)c21 [Compound 7, 2-Amino-7-((E)-but-2-en-1-yl)-9-((2R,3R,4R,5R)-3,4-dihydroxy-5-(hydroxymethyl)tetrahydrofuran-2-yl)-7,9-dihydro-1H-purine-6,8-dione] | 3.27 | 63 µM | –
19 | Nc1nc2c(c(=O)[nH]1)n(CCCC(=O)O)c(=O)n2[C@@H]1O[C@H](CO)[C@H](O)[C@H]1O [Compound 20, 4-(2-Amino-9-((2R,3R,4R,5R)-3,4-dihydroxy-5-(hydroxymethyl)tetrahydrofuran-2-yl)-6,8-dioxo-1,6,8,9-tetrahydro-7H-purin-7-yl)butanoic Acid] | 4.10 | >100* μM | –
20 | CCCCn1c(=O)n([C@@H]2O[C@H](CO)[C@H](O)[C@H]2O)c2nc(N)[nH]c(=O)c21 [Compound 18, 2-Amino-7-butyl-9-((2R,3R,4R,5R)-3,4-dihydroxy-5-(hydroxymethyl)tetrahydrofuran-2-yl)-7,9-dihydro-1H-purine-6,8-dione] | 3.48 | less than or equal to 40 μM and 37 μM | < 100
21 | Cn1c(=O)n([C@@H]2O[C@H](CO)[C@H](O)[C@H]2O)c2nc(N)[nH]c(=O)c21 [Compound 15, 2-Amino-9-((2R,3R,4R,5R)-3,4-dihydroxy-5-(hydroxymethyl)tetrahydrofuran-2-yl)-7-methyl-7,9-dihydro-1H-purine-6,8-dione] | < 3.30 | – | –
